The values below are quoted from earlier work in US20080077374A1, “Method for predicting biological, biochemical, biophysical or pharmacological characteristics of a substance” (priority 2006, published 2008).

One series concerns male Sprague Dawley rats. The following applies: for Diagnosis cc: clinical chemistry; for Diagnosis histo: histopathology; for Main target: main toxicity target; for observed severity of histological lesions: liver, labelled by COMET1 study number.
The subject of the next series is HanWistar rats. The following applies: HanWistar rats (study R12).
The mark [1] stands for this setting: SpragueDawley rats, refinement of the principal toxicity.

Like-named read-outs stand apart in the source and are kept apart here.

`S=C=Nc1cccc2ccccc12` [ANIT]: in the series on male Sprague Dawley rats (SpragueDawley rats), the Diagnosis cc entry is “+”, the Diagnosis histo is given as 2bil and the Main target entry is “Hepatotoxic”. In addition, the “observed severity of histological lesions” value with male Sprague Dawley rats is reported as “no or minimal liver lesions”.
`CC(=O)Nc1nnc(S(N)(=O)=O)s1` [Acetazolamide]: the 2nd toxicity entry in the series with male Sprague Dawley rats (rat, in vivo) is “Papilla”.
Consider `Cl.N` [Ammonium Chloride], for which, in the series with male Sprague Dawley rats (SpragueDawley rats), the Subclass/Indication result is on record as “Non-Toxic”, the Diagnosis cc result is reported as “+”, the Diagnosis histo was 0 and the Main target entry is recorded as “Kidney”. Further, the Tox class result in the series on male Sprague Dawley rats (SpragueDawley rats, highest dose level, pathology at 48 h post dose, assumed organ toxicity class) is on record as “ntx”. Besides, in the series with male Sprague Dawley rats (setting [1]), the 2nd toxicity result is “Metabolic”.
On to `CCOC(=O)C(C)(C)Oc1ccc(Cl)cc1` [Clofibrate], for which, in the series on male Sprague Dawley rats (SpragueDawley rats), the Subclass/Indication entry is given as “Toxicant”, the Diagnosis cc result is listed as “+”, the Diagnosis histo was 9sub and the Main target result is reported as “Hepatotoxic”. Further, the “observed severity of histological lesions” value in the series on male Sprague Dawley rats is listed as “no or minimal liver lesions”. Further, in the series with male Sprague Dawley rats (rat, in vivo), the 2nd toxicity result is recorded as “Peroxisome”.
Take `CN(C)N=O` [Di-methylnitrosamin]: in the series with male Sprague Dawley rats (SpragueDawley rats), the Subclass/Indication entry was “Toxicant”, the Diagnosis cc result was “+”, the Diagnosis histo was 2 and the Main target entry was “Hepatotoxic”. In addition, the 2nd toxicity result in the series with male Sprague Dawley rats (setting [1]) is listed as “Direct reaction”. The “observed severity of histological lesions” value in the series with male Sprague Dawley rats is “marked liver lesions”.
As to `NN` [Hydrazine], the 2nd toxicity entry in the series on HanWistar rats and in the series on male Sprague Dawley rats (setting [1]) was “Steatosis” each time. The Subclass/Indication result in the series with HanWistar rats and with male Sprague Dawley rats (SpragueDawley rats) was “Toxicant” in each case. Further, the Diagnosis cc result with HanWistar rats (clinical chemistry) and in the series with male Sprague Dawley rats (SpragueDawley rats) was “+” throughout. The Diagnosis histo in the series with HanWistar rats (histopathology) and in the series on male Sprague Dawley rats (SpragueDawley rats) was 7 in each case. In addition, the Main target result with HanWistar rats (main toxicity target) and in the series with male Sprague Dawley rats (SpragueDawley rats) was “Hepatotoxic” throughout.
As to `O=C(O)/C=C\C(=O)O` [Maleic acid], the 2nd toxicity result with male Sprague Dawley rats (rat, in vivo) is given as “Proximal”.
For the compound `[Cl][Hg][Cl]` [Mercury Chloride], in the series with male Sprague Dawley rats (SpragueDawley rats), the Subclass/Indication entry is given as “Toxicant”, the Diagnosis cc entry was “+”, the Diagnosis histo was 3 and the Main target entry is given as “Nephrotoxic”. Moreover, the 2nd toxicity entry in the series on male Sprague Dawley rats (setting [1]) is “Proximal”.
Turning to `CN(Cc1cnc2nc(N)nc(N)c2n1)c1ccc(C(=O)N[C@@H](CCC(=O)O)C(=O)O)cc1` [Methotrexate], in the series on male Sprague Dawley rats (SpragueDawley rats), the Subclass/Indication result is “Toxicant”, the Diagnosis cc result is recorded as “−”, the Diagnosis histo is 1hea and the Main target entry was “Hemotoxic”. Also, the 2nd toxicity result in the series on male Sprague Dawley rats (rat, in vivo) is “Liver & kidney”.
With `CO[C@@]12[C@H](COC(N)=O)C3=C(C(=O)C(C)=C(N)C3=O)N1C[C@@H]1N[C@@H]12` [Mitomycin], in the series on male Sprague Dawley rats (SpragueDawley rats), the Diagnosis histo was 1hae. The 2nd toxicity result with male Sprague Dawley rats (rat, in vivo) was “Tubules, blood”.
In the case of `CNC=O` [N-methylformamid], in the series on male Sprague Dawley rats (SpragueDawley rats), the Subclass/Indication entry was “Toxicant”, the Diagnosis cc result was “+”, the Diagnosis histo is 2 and the Main target entry is “Hepatotoxic”. Moreover, the 2nd toxicity entry in the series with male Sprague Dawley rats (setting [1]) was “Direct reaction”.
`CN[C@H](CC(C)C)C(=O)N[C@H]1C(=O)N[C@@H](CC(N)=O)C(=O)N[C@H]2C(=O)N[C@H]3C(=O)N[C@H](C(=O)N[C@H](C(=O)O)c4cc(O)cc(O)c4-c4cc3ccc4O)[C@H](O)c3ccc(c(Cl)c3)Oc3cc2cc(c3O[C@@H]2O[C@H](CO)[C@@H](O)[C@H](O)[C@H]2O[C@H]2C[C@](C)(N)[C@H](O)[C@H](C)O2)Oc2ccc(cc2Cl)[C@H]1O` [Vancomycin]: in the series with male Sprague Dawley rats (SpragueDawley rats), the Subclass/Indication result is recorded as “Toxicant”, the Diagnosis cc entry is reported as “+”, the Diagnosis histo is reported as 3reg and the Main target entry was “Nephrotoxic”. The 2nd toxicity result in the series on male Sprague Dawley rats (setting [1]) was “Proximal”.
As for Gentamicin, in the series with male Sprague Dawley rats (SpragueDawley rats), the Subclass/Indication entry is given as “Toxin”, the Diagnosis cc result was “+”, the Diagnosis histo is recorded as 3sub and the Main target entry is reported as “Nephrotoxic”. Moreover, the 2nd toxicity result in the series on male Sprague Dawley rats (setting [1]) is recorded as “Proximal”.
